What was measured:
Experiment in all cases: relative viability (nuclei count vs DMSO), 5 days (fraction); higher = more cells survive
[1] = compound: COc1cc2ncn(-c3cc(OCc4ccccc4C(F)(F)F)c(C(N)=O)s3)c2cc1OC + Cc1cc(Nc2cc(N3CCN(C)CC3)nc(Sc3ccc(NC(=O)C4CC4)cc3)n2)n[nH]1 [Tozasertib] (partner 0.1 µM)
Outline: (§1)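 Lung cancer cell lines in 1536-well plates were dosed by pin tool the day after seeding, either with one drug alone or with a fixed anchor-drug dose plus five library-drug doses (not always all listed) in √10 steps. After 5 days, cells were fixed and their nuclei stained in one step (final 0.05% Triton X-100, 1% formaldehyde, 1 ug/ml Hoechst), then counted on 4× images. Relative viability is the nuclei count in treated wells divided by that in vehicle wells. Values are medians of duplicate plates.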

[2] = compound: COc1cc2ncn(-c3cc(OCc4ccccc4C(F)(F)F)c(C(N)=O)s3)c2cc1OC + COc1cc2c(Oc3ccc(NC(=O)C4(C(=O)Nc5ccc(F)cc5)CC4)cc3F)ccnc2cc1OCCCN1CCOCC1 [Foretinib] (partner 0.25 µM)
Outline: as §1

[3] = compound: COc1cc2ncn(-c3cc(OCc4ccccc4C(F)(F)F)c(C(N)=O)s3)c2cc1OC + NC(=O)Nc1cc(-c2cccc(F)c2)sc1C(=O)N[C@H]1CCCNC1 [AZD7762] (partner 0.2 µM)
Outline: as §1

[4] = compound: COc1cc2ncn(-c3cc(OCc4ccccc4C(F)(F)F)c(C(N)=O)s3)c2cc1OC + CCNC(=O)c1noc(-c2cc(C(C)C)c(O)cc2O)c1-c1ccc(CN2CCOCC2)cc1 [Luminespib] (partner 0.01 µM)
Outline: as §1

Cell Line	relative viability ([1]; first compound 0.05 µM)	relative viability ([1]; first compound 0.1581 µM)	relative viability ([1]; first compound 0.5 µM)	relative viability ([1]; first compound 1.581 µM)	relative viability ([1]; first compound 5 µM)	relative viability ([2]; first compound 0.05 µM)	relative viability ([2]; first compound 0.1581 µM)	relative viability ([2]; first compound 0.5 µM)	relative viability ([2]; first compound 1.581 µM)	relative viability ([2]; first compound 5 µM)	relative viability ([3]; first compound 0.05 µM)	relative viability ([3]; first compound 0.1581 µM)	relative viability ([3]; first compound 0.5 µM)	relative viability ([3]; first compound 1.581 µM)	relative viability ([3]; first compound 5 µM)	relative viability ([4]; first compound 0.05 µM)	relative viability ([4]; first compound 0.1581 µM)	relative viability ([4]; first compound 0.5 µM)	relative viability ([4]; first compound 1.581 µM)	relative viability ([4]; first compound 5 µM)
NCI-H838	0.245	0.258	0.189	0.25	0.204	1.17	1.09	0.832	0.455	0.139	0.968	0.916	0.73	0.609	0.581	0.301	0.283	0.128	0.136	0.114
NCI-H1355	0.515	0.635	0.302	0.202	0.135	0.935	0.888	0.642	0.218	0.139	0.793	0.747	0.456	0.163	0.137	0.635	0.623	0.424	0.221	0.163
NCI-H1395	0.774	0.898	0.636	0.36	0.343	0.932	1.01	0.686	0.448	0.556	0.454	0.396	0.377	0.323	0.316	0.753	0.814	0.579	0.321	0.359
NCI-H1437	0.457	0.456	0.377	0.354	0.251	1.38	1.17	0.456	0.267	0.194	1.24	1.09	0.6	0.198	0.154	1.16	0.969	0.53	0.244	0.159
NCI-H1651	0.89	0.706	0.314	0.182	0.155	0.832	0.893	0.655	0.118	0.102	0.415	0.518	0.32	0.37	0.303	1.15	0.858	0.36	0.137	0.109
NCI-H1666	0.569	0.507	0.388	0.343	0.39	0.927	0.832	0.507	0.393	0.354	0.84	0.881	0.8	0.555	0.483	1.06	0.937	0.508	0.36	0.363
NCI-H1734	0.272	0.245	0.226	0.224	0.17	0.85	1.06	0.56	0.257	0.204	0.588	0.608	0.511	0.18	0.134	0.18	0.239	0.17	0.147	0.125
NCI-H1755	0.517	0.553	0.518	0.376	0.285	0.583	0.896	0.635	0.362	0.315	0.431	0.525	0.397	0.373	0.259	0.463	0.388	0.474	0.224	0.181

From the supplement of paper PMC10307832
